Measured values reported in patent US20260144788A1, “COMPOUND FOR SHP2 PROTEIN DEGRADATION AND MEDICAL USES THEREOF” (UBIX THERAPEUTICS, INC., priority 2022, published 2026).

Biological target: T1, SHP2 protein (Homo sapiens, UniProt Q06124)
T1 sequence (Q06124 1-593): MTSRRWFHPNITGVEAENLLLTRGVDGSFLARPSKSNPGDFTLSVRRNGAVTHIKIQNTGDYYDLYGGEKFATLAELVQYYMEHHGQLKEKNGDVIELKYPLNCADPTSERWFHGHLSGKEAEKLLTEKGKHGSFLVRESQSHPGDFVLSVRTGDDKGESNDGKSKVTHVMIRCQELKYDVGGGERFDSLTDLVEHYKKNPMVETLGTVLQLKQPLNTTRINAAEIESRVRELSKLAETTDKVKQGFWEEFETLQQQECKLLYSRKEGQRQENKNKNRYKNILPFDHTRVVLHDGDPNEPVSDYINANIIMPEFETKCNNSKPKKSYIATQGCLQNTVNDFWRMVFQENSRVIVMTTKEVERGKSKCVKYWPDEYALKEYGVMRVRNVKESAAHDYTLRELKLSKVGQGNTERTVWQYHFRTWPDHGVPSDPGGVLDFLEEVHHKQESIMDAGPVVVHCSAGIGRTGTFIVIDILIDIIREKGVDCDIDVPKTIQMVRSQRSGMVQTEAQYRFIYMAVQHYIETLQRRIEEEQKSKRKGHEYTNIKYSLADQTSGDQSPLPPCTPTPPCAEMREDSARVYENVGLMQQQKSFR
Test: Measurement of SHP2 protein degradation in NCI-H358 cells (western blotting)
Format: cell-based
Parameters: endogenous in cells; host or cells: NCI-H358
Settings: harvested after 24 hours
Experimental: H358 cells were treated with the synthesized Example compounds, and the amount of SHP2 protein present in the cells was measured using western blotting detection. The protocol for the experiment using H358 cells is as follows.
[Culture]H358 cells were resuspended in RPMI1640 with 25 mM HEPES (Hyclone, SH30255.01), 10% FBS (Hyclone, SV30207.02), 1% Penicillin-streptomycin (Welgene, LS 202-02) media, seeded at 3×10^5/mL in 12-well plates (1 mL each), and cultured for 24 hours.
[Compound treatment] Before compound treatment, the media was changed to 1 mL media, and then the 12-well plate was treated as follows. The 10 mM stock dissolved in DMSO was serially diluted 1/100 or 1/10 with the media, and the compound was treated to the cells at a final concentration of 0.001, 0.01, and 0.1 μM, and harvested after 24 hours. For the negative control group, DMSO diluted 1/1000 in the media was added (1 μL DMSO+999 μL media).
[Harvest]24 hours after compound treatment, each well was scraped with a cell lifter (SPL, 90040), pipetted with a 1 mL pipette, collected in a 1.5 mL microtube, and centrifuged (500 g, 5 min, 4° C.). The supernatant was removed, washed with PBS, and centrifuged again (500 g, 5 min, 4° C.). Afterwards, the supernatant was removed to prepare a pellet.
[Cell lysis and sample preparation] Lysis buffer was prepared as follows. RIPA buffer (Biosesang, RC2038-050-00)+0.5 mM PMSF (SIGMA, P7626)+1× Protease/Phosphatase Inhibitor (Cell signaling, 5872S) were added at 30 μL per tube, vortexed, and incubated on ice for 30 minutes. Afterwards, sonication was performed (10 sec pulse, 30 sec rest, 5 cycles, 70% amplification) and centrifugation was performed (15,000 g, 15 min, 4° C.), and only the supernatant was transferred to a microtube. A 96-well plate was diluted to 1/4 with 7.5 μL of RIPA buffer and 2.5 μL of sample, and 200 μL each was added after mixing A and B of the BCA Protein Assay Kit (iNtRON, 21071) in a ratio of 50:1. The plate was incubated at 37° C. for 30 minutes and left at room temperature for 10 minutes. After shaking for 10 seconds with a SYNERGY H1 microplate reader from BioTek, the absorbance was measured at 562 nm. The protein was quantified using the measured value to make a sample, which was then incubated at 70° C. for 10 minutes. The sample buffer used here was a mixture of NuPAGE or Bolt 4× sample buffer (Invitrogen) and each 10× sample reducing agent depending on the gel to be used, and RIPA buffer was used for protein dilution.
[Western blotting detection] Equal amounts of samples were loaded onto NuPAGE or Bolt Bis-tris 4-12% gradient gel and run (200 V, 35 min). This was transferred to […] NC membrane using Trans-blot Turbo (BIO-RAD) (1.3 A constant, 25 V limit, 15 min), and blocked with 5% skim milk/0.2% TBST for 45 min at room temperature. Anti-SHPTP2 Mouse (1:1,000 in 5% skim milk/0.2% TBST, size: 70 kDa, Santa cruz sc-7384) and Anti-GAPDH Rabbit (1:2,000 in 5% skim milk or 5% BSA/0.2% TBST, size: 37 kDa, CST #2118) were added and incubated overnight at 4° C. After washing three times with 0.2% TBST washing buffer for 5 minutes each, secondary antibodies Anti-Mouse IgG (1:5,000 in 5% skim milk/0.2% TBST, CST) and IRDye® 680RD Goat anti-Rabbit IgG Secondary Antibody (1:10,000 in 5% skim milk/0.2% TBST, LI-COR 926-68071) were added, and incubated on a rocker at room temperature for 45 minutes. The resultants were washed five times with 0.2% TBST washing buffer for 5 minutes each, and detected using LI-COR's Odyssey. GAPDH was detected with a 700 nm channel, and SHPTP2 was detected using SuperSignal West Pico PLUS Chemiluminescent Substrate.

Structure (SMILES) | SHP2% degradation (0.01 μM) [%] | SHP2% degradation (0.1 μM) [%]
CC(=O)N[C@H](C(=O)N1C[C@H](O)C[C@H]1C(=O)NCc1ccc(-c2scnc2C)cc1O[C@H]1CC[C@H](C(=O)N2CC(N3CCOc4c(Sc5cnc(N6CCC(C)(CN)CC6)cn5)cccc43)C2)CC1)C(C)(C)C [Example 34, (2S,4R)-1-((S)-2-acetamido-3,3-dimethylbutanoyl)-N-(2-(((1R,4S)-4-(3-(8-((5-(4-(aminomethyl)-4-methylpiperidin-1-yl)pyrazin-2-yl)thio)-2,3-dihydro-4H-benzo[b][1,4]oxazin-4-yl)azetidine-1-carbonyl)cyclohexyl)oxy)-4-(4-methylthiazol-5-yl)benzyl)-4-hydroxypyrrolidine-2-carboxamide] | −36.9 | 73.0
CC(=O)N[C@H](C(=O)N1C[C@H](O)C[C@H]1C(=O)NCc1ccc(-c2scnc2C)cc1O[C@H]1CC[C@H](C(=O)N2CCC(N3CCOc4c(Sc5cnc(N6CCC(C)(CN)CC6)cn5)cccc43)CC2)CC1)C(C)(C)C [Example 35, (2S,4R)-1-((S)-2-acetamido-3,3-dimethylbutanoyl)-N-(2-(((1r,4S)-4-(4-(8-((5-(4-(aminomethyl)-4-methylpiperidin-1-yl)pyrazin-2-yl)thio)-2,3-dihydro-4H-benzo[b][1,4]oxazin-4-yl)piperidine-1-carbonyl)cyclohexyl)oxy)-4-(4-methylthiazol-5-yl)benzyl)-4-hydroxypyrrolidine-2-carboxamide] | 66.8 | 97.7
CC(=O)N[C@H](C(=O)N1C[C@H](O)C[C@H]1C(=O)NCc1ccc(-c2scnc2C)cc1O[C@H]1CC[C@H](C(=O)N2CCC(N3CCOc4c(Sc5cnc(N6CCC7(CC6)CO[C@@H](C)[C@H]7N)cn5)cccc43)CC2)CC1)C(C)(C)C [Example 36, (2S,4R)-1-((S)-2-acetamido-3,3-dimethylbutanoyl)-N-(2-(((1R,4S)-4-(4-(8-((5-((3S,4S)-4-amino-3-methyl-2-oxa-8-azaspiro[4.5]decan-8-yl)pyrazin-2-yl)thio)-2H-benzo[b][1,4]oxazin-4(3H)-yl)piperidine-1-carbonyl)cyclohexyl)oxy)-4-(4-methylthiazol-5-yl)benzyl)-4-hydroxypyrrolidine-2-carboxamide] | 91.0 | 100.0
CC(=O)N[C@H](C(=O)N1C[C@H](O)C[C@H]1C(=O)NCc1ccc(-c2scnc2C)cc1O[C@H]1CC[C@H](C(=O)N2CCC(n3cc(F)c4c(Sc5cnc(N6CCC(C)(CN)CC6)cn5)cccc43)CC2)CC1)C(C)(C)C [Example 37, (2S,4R)-1-((S)-2-acetamido-3,3-dimethylbutanoyl)-N-(2-(((1r,4S)-4-(4-(4-((5-(4-(aminomethyl)-4-methylpiperidin-1-yl)pyrazin-2-yl)thio)-3-fluoro-1H-indol-1-yl)piperidine-1-carbonyl)cyclohexyl)oxy)-4-(4-methylthiazol-5-yl)benzyl)-4-hydroxypyrrolidine-2-carboxamide] | 75.8 | 99.
CC(=O)N[C@H](C(=O)N1C[C@H](O)C[C@H]1C(=O)NCc1ccc(-c2scnc2C)cc1O[C@H]1CC[C@H](C(=O)N2CC(Nc3nccc(Sc4cnc(N5CCC(C)(N)CC5)cn4)c3Cl)C2)CC1)C(C)(C)C [Example 39, (2S,4R)-1-((S)-2-acetamido-3,3-dimethylbutanoyl)-N-(2-(((1R,4S)-4-(3-((4-((5-(4-amino-4-methylpiperidin-1-yl)pyrazin-2-yl)thio)-3-chloropyridin-2-yl)amino)azetidine-1-carbonyl)cyclohexyl)oxy)-4-(4-methylthiazol-5-yl)benzyl)-4-hydroxypyrrolidine-2-carboxamide] | 83.6 | 98.1
CC(=O)N[C@H](C(=O)N1C[C@H](O)C[C@H]1C(=O)NCc1ccc(-c2scnc2C)cc1O[C@H]1CC[C@H](C(=O)N2CC(Nc3nccc(Sc4cnc(N5CCC6(CC5)CO[C@@H](C)[C@H]6N)cn4)c3Cl)C2)CC1)C(C)(C)C [Example 40, (2S,4R)-1-((S)-2-acetamido-3,3-dimethylbutanoyl)-N-(2-(((1R,4S)-4-(3-((4-((5-((3S,4S)-4-amino-3-methyl-2-oxa-8-azaspiro[4.5]decan-8-yl)pyrazin-2-yl)thio)-3-chloropyridin-2-yl)amino)azetidine-1-carbonyl)cyclohexyl)oxy)-4-(4-methylthiazol-5-yl)benzyl)-4-hydroxypyrrolidine-2-carboxamide] | 94.2 | 95.9
CC(=O)N[C@H](C(=O)N1C[C@H](O)C[C@H]1C(=O)NCc1ccc(-c2scnc2C)cc1O[C@H]1CC[C@H](C(=O)N2CCC(Nc3nccc(Sc4cnc(N5CCC(C)(N)CC5)cn4)c3Cl)CC2)CC1)C(C)(C)C [Example 42, (2S,4R)-1-((S)-2-acetamido-3,3-dimethylbutanoyl)-N-(2-(((1R,4S)-4-(4-((4-((5-(4-amino-4-methylpiperidin-1-yl)pyrazin-2-yl)thio)-3-chloropyridin-2-yl)amino)piperidine-1-carbonyl)cyclohexyl)oxy)-4-(4-methylthiazol-5-yl)benzyl)-4-hydroxypyrrolidine-2-carboxamide] | 95.2 | 98.7
CC(=O)N[C@H](C(=O)N1C[C@H](O)C[C@H]1C(=O)NCc1ccc(-c2scnc2C)cc1O[C@H]1CC[C@H](C(=O)N2CCC(Nc3nccc(Sc4cnc(N5CCC6(CC5)CO[C@@H](C)[C@H]6N)cn4)c3Cl)CC2)CC1)C(C)(C)C [Example 43, (2S,4R)-1-((S)-2-acetamido-3,3-dimethylbutanoyl)-N-(2-(((1R,4S)-4-(4-((4-((5-((3S,4S)-4-amino-3-methyl-2-oxa-8-azaspiro[4.5]decan-8-yl)pyrazin-2-yl)thio)-3-chloropyridin-2-yl)amino)piperidine-1-carbonyl)cyclohexyl)oxy)-4-(4-methylthiazol-5-yl)benzyl)-4-hydroxypyrrolidine-2-carboxamide] | 94.3 | 95.9
CC(=O)N[C@H](C(=O)N1C[C@H](O)C[C@H]1C(=O)NCc1ccc(-c2scnc2C)cc1O[C@H]1CC[C@H](C(=O)N2CC(Nc3nccc(Sc4cnc(N5CCC(C)(CN)CC5)c(CO)n4)c3Cl)C2)CC1)C(C)(C)C [Example 44, (2S,4R)-1-((S)-2-acetamido-3,3-dimethylbutanoyl)-N-(2-(((1r,4S)-4-(3-((4-((5-(4-(aminomethyl)-4-methylpiperidin-1-yl)-6-(hydroxymethyl)pyrazin-2-yl)thio)-3-chloropyridin-2-yl)amino)azetidine-1-carbonyl)cyclohexyl)oxy)-4-(4-methylthiazol-5-yl)benzyl)-4-hydroxypyrrolidine-2-carboxamide] | 88.5 | 99.1
